Reference: US20100267561A1, “HERBICIDAL PYRIDAZINONE DERIVATIVES” (priority 2007, published 2010)

Columns and labels:
Assay type in all cases: in vivo
[1] = tested on: Italian ryegrass (Lolium multiflorum); test: Test B pre-/postemergence plant response
Text: (§1) Seeds of plant species selected from blackgrass (Alopecurus myosuroides), downy bromegrass (Bromus tectorum), green foxtail (Setaria viridis), Italian ryegrass (Lolium multiflorum), wheat (Triticum aestivum), wild oat (Avena fatua), catchweed bedstraw (Galium aparine), bermudagrass (Cynodon dactylon), surinam grass (Brachiaria decumbens), cocklebur (Xanthium strumarium), corn (Zea mays), large crabgrass (Digitaria sanguinalis), woolly cupgrass (Eriochloa villosa), giant foxtail (Setaria faberii), goosegrass (Eleusine indica), johnsongrass (Sorghum halepense), kochia (Kochia scoparia), lambsquarters (Chenopodium album), morningglory (Ipomoea coccinea), eastern black (E.B.) nightshade (Solanum ptycanthum), yellow nutsedge (Cyperus esculentus), pigweed (Amaranthus retroflexus), common ragweed (Ambrosia elation), Russian thistle (Salsola iberica), soybean (Glycine max), common (oilseed) sunflower (Helianthus annuus), and velvetleaf (Abutilon theophrasti) were planted and treated preemergence with test chemicals formulated in a non-phytotoxic solvent mixture which included a surfactant.
(§2) At the same time, plants selected from these crop and weed species and also winter barley (Hordeum vulgare), canarygrass (Phalaris minor), chickweed (Stellaria media) and windgrass (Apera spica-venti) were treated with postemergence applications of some of the test chemicals formulated in the same manner. Plants ranged in height from 2 to 18 cm (1- to 4-leaf stage) for postemergence treatments.
(§3) Plant species in the flooded paddy test consisted of rice (Oryza sativa), umbrella sedge (Cyperus difformis), ducksalad (Heteranthera limosa) and barnyardgrass (Echinochloa crus-galli) grown to the 2-leaf stage for testing. At time of treatment, test pots were flooded to 3 cm above the soil surface, treated by application of test compounds directly to the paddy water, and then maintained at that water depth for the duration of the test. Treated plants and controls were maintained in a greenhouse for 13 to 15 days, after which time all species were compared to controls and visually evaluated. Plant response ratings, summarized in Table B, are based on a scale of 0 to 100 where 0 is no effect and 100 is complete control. A dash (-) response means no test result.

[2] = tested on: Russian thistle (Salsola iberica); test: Test B pre-/postemergence plant response; details: Preemergence
Text: as §1, §2, §3

[3] = tested on: bermudagrass (Cynodon dactylon); test: Test B pre-/postemergence plant response
Text: as §1, §2, §3

[4] = tested on: cocklebur (Xanthium strumarium); test: Test B pre-/postemergence plant response
Text: as §1, §2, §3

corn (Zea mays) = test: Test B pre-/postemergence plant response
Text: as §1, §2, §3

[5] = tested on: downy bromegrass (Bromus tectorum); test: Test B pre-/postemergence plant response
Text: as §1, §2, §3

[6] = tested on: giant foxtail (Setaria faberii); test: Test B pre-/postemergence plant response
Text: as §1, §2, §3

[7] = tested on: velvetleaf (Abutilon theophrasti); test: Test B pre-/postemergence plant response
Text: as §1, §2, §3

[8] = tested on: woolly cupgrass (Eriochloa villosa); test: Test B pre-/postemergence plant response
Text: as §1, §2, §3

[9] = tested on: yellow nutsedge (Cyperus esculentus); test: Test B pre-/postemergence plant response
Text: as §1, §2, §3

[10] = tested on: barnyardgrass (Echinochloa crus-galli); test: Test B flooded paddy test plant response
Summary of the method: (§4)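 Compounds were added directly to paddy water over 2-leaf-stage plants in pots flooded 3 cm above soil, water depth maintained. Visual injury scored against controls after 13 to 15 days in greenhouse, 0 (none) to 100 (complete control); dash indicates no result.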

[11] = tested on: ducksalad (Heteranthera limosa); test: Test B flooded paddy test plant response
Summary of the method: as §4

rice (Oryza sativa) = test: Test B flooded paddy test plant response
Summary of the method: as §4

[12] = tested on: umbrella sedge (Cyperus difformis); test: Test B flooded paddy test plant response
Summary of the method: as §4

[13] = Postemergence, 31 g ai/ha, scale 0 to 100, 0 no effect, 100 complete control
[14] = Postemergence, 62 g ai/ha, scale 0 to 100
[15] = Postemergence, 125 g ai/ha, scale 0 to 100
[16] = Postemergence, 250 g ai/ha, scale 0 to 100
[17] = Preemergence, 31 g ai/ha, 0 to 100 scale, 0 no effect, 100 complete control
[18] = Preemergence, 62 g ai/ha, scale 0 to 100
[19] = Preemergence, 125 g ai/ha, scale 0 to 100
[20] = Preemergence, 250 g ai/ha, scale 0 to 100
[21] = Flood (flooded paddy test), 62 g ai/ha, scale 0 to 100, 0 no effect, 100 complete control
[22] = Flood (flooded paddy test), 125 g ai/ha, scale 0 to 100, 0 no effect, 100 complete control
[23] = Flood (flooded paddy test), 250 g ai/ha, scale 0 to 100, 0 no effect, 100 complete control
[24] = Flood, 31 g ai/ha, scale 0 to 100

SMILES: CCc1cc(-c2ccc(C(F)(F)F)cc2)nn1-c1c(O)c(C)nn(C)c1=O [Compound 16]
- Plant response rating, Ryegrass, Italian [1, 13]: 100
- Plant response rating, Ryegrass, Italian [1, 14]: 100
- Plant response rating, Ryegrass, Italian [1, 15]: 100
- Plant response rating, Ryegrass, Italian [1, 16]: 100
- Plant response rating, Ryegrass, Italian [1, 17]: 100
- Plant response rating, Ryegrass, Italian [1, 18]: 100
- Plant response rating, Ryegrass, Italian [1, 19]: 100
- Plant response rating, Ryegrass, Italian [1, 20]: 100
- Plant response rating, Russian Thistle ([2]; 31 g ai/ha, 0 to 100 scale, 0 no effect, 100 complete control): 0
- Plant response rating, Russian Thistle ([2]; 62 g ai/ha, scale 0 to 100): 0
- Plant response rating, Russian Thistle ([2]; 125 g ai/ha, scale 0 to 100): 0
- Plant response rating, Russian Thistle ([2]; 250 g ai/ha, scale 0 to 100): 0
- Bermudagrass plant response rating ([3]; 250 g ai/ha, preemergence, 0-100 scale): 100
- Plant response rating, Bermudagrass [3, 13]: 65
- Plant response rating, Bermudagrass [3, 14]: 100
- Plant response rating, Bermudagrass [3, 15]: 100
- Plant response rating, Bermudagrass [3, 16]: 100
- Plant response rating, Bermudagrass [3, 17]: 0
- Plant response rating, Bermudagrass [3, 18]: 0
- Plant response rating, Bermudagrass [3, 19]: 98
- Plant response rating, Cocklebur [4, 13]: 0
- Plant response rating, Cocklebur [4, 14]: 0
- Plant response rating, Cocklebur [4, 15]: 0
- Plant response rating, Cocklebur [4, 16]: 0
- Plant response rating, Cocklebur [4, 17]: 0
- Plant response rating, Cocklebur [4, 18]: 0
- Plant response rating, Cocklebur [4, 19]: 0
- Plant response rating, Cocklebur [4, 20]: 0
- Plant response rating, Corn (corn (Zea mays); [13]): 98
- Plant response rating, Corn (corn (Zea mays); [14]): 98
- Plant response rating, Corn (corn (Zea mays); [15]): 100
- Plant response rating, Corn (corn (Zea mays); [16]): 100
- Plant response rating, Corn (corn (Zea mays); [17]): 0
- Plant response rating, Corn (corn (Zea mays); [18]): 100
- Plant response rating, Corn (corn (Zea mays); [19]): 100
- Plant response rating, Corn (corn (Zea mays); [20]): 100
- Plant response rating, Bromegrass, Downy [5, 13]: 60
- Plant response rating, Bromegrass, Downy [5, 14]: 70
- Plant response rating, Bromegrass, Downy [5, 15]: 90
- Plant response rating, Bromegrass, Downy [5, 16]: 100
- Plant response rating, Bromegrass, Downy [5, 17]: 90
- Plant response rating, Bromegrass, Downy [5, 18]: 100
- Plant response rating, Bromegrass, Downy [5, 19]: 100
- Plant response rating, Bromegrass, Downy ([5]; Preemergence, 250 g ai/ha, scale 0 to 100 (0 no effect, 100 complete control)): 100
- Plant response rating, Foxtail, Giant [6, 13]: 85
- Plant response rating, Foxtail, Giant [6, 14]: 98
- Plant response rating, Foxtail, Giant [6, 15]: 100
- Plant response rating, Foxtail, Giant [6, 16]: 100
- Plant response rating, Foxtail, Giant [6, 17]: 0
- Plant response rating, Foxtail, Giant [6, 18]: 0
- Plant response rating, Foxtail, Giant [6, 19]: 40
- Plant response rating, Foxtail, Giant [6, 20]: 70
- Plant response rating, Velvetleaf [7, 13]: 0
- Plant response rating, Velvetleaf [7, 14]: 0
- Plant response rating, Velvetleaf [7, 15]: 0
- Plant response rating, Velvetleaf [7, 16]: 0
- Plant response rating, Velvetleaf [7, 17]: 0
- Plant response rating, Velvetleaf [7, 18]: 0
- Plant response rating, Velvetleaf [7, 19]: 0
- Plant response rating, Velvetleaf [7, 20]: 0
- Plant response rating, Cupgrass, Woolly [8, 13]: 80
- Plant response rating, Cupgrass, Woolly [8, 14]: 95
- Plant response rating, Cupgrass, Woolly [8, 15]: 100
- Plant response rating, Cupgrass, Woolly [8, 16]: 100
- Plant response rating, Cupgrass, Woolly [8, 17]: 0
- Plant response rating, Cupgrass, Woolly [8, 18]: 25
- Plant response rating, Cupgrass, Woolly [8, 19]: 70
- Plant response rating, Cupgrass, Woolly [8, 20]: 95
- Plant response rating, Nutsedge, Yellow [9, 13]: 0
- Plant response rating, Nutsedge, Yellow [9, 14]: 0
- Plant response rating, Nutsedge, Yellow [9, 15]: 0
- Plant response rating, Nutsedge, Yellow [9, 16]: 0
- Plant response rating, Nutsedge, Yellow [9, 17]: 0
- Plant response rating, Nutsedge, Yellow [9, 18]: 0
- Plant response rating, Nutsedge, Yellow [9, 19]: 0
- Plant response rating, Nutsedge, Yellow [9, 20]: 20
- Plant response rating, Barnyardgrass [10, 21]: 20
- Plant response rating, Barnyardgrass [10, 22]: 40
- Plant response rating, Barnyardgrass [10, 23]: 60
- Plant response rating, Barnyardgrass [10, 24]: 15
- Plant response rating, Ducksalad [11, 21]: 0
- Plant response rating, Ducksalad [11, 22]: 0
- Plant response rating, Ducksalad [11, 23]: 0
- Plant response rating, Ducksalad [11, 24]: 0
- Plant response rating, Rice (rice (Oryza sativa); [21]): 20
- Plant response rating, Rice (rice (Oryza sativa); [22]): 45
- Plant response rating, Rice (rice (Oryza sativa); [23]): 80
- Plant response rating, Rice (rice (Oryza sativa); [24]): 0
- Plant response rating, Sedge, Umbrella [12, 21]: 30
- Plant response rating, Sedge, Umbrella [12, 22]: 30
- Plant response rating, Sedge, Umbrella [12, 23]: 45
- Plant response rating, Sedge, Umbrella [12, 24]: 0
